Reference: patent US20110230478A1 (Bayer ScienceCrop AG, priority 2008, published 2011)

How the values were obtained:
[1] = logP by HPLC on reversed-phase columns (C 18), EEC Directive 79/831 Annex V.A8; format: physicochemical
Fusarium proliferatum = assay: Production of Fumonisin FB1 by Fusarium proliferatum (microtitre plate, FB1 by HPLC-MS/MS, growth by OD); format: cell-based; details: for pI50 growth: OD620 at the beginning and after 6 days; for pI50 Fum: FB1 concentration in medium after 6 days at 20° C., HPLC-MS/MS
Gibberella zeae = details: in vivo
Fusarium graminearum = format: cell-based; details: 50 µM
[2] = values marked [b], footnote not given
[3] = values marked [c], footnote not given
[4] = method marker [b], footnote not given, compound 68 value matches logP (pH 2.3)

Q: With `CNC(=O)Oc1cccc(Nc2ncc(Cl)c(NC(C)C)n2)c1` [Example 203] as the molecule, how does the logP [1, 2] read?
A: Its logP is 1.53[b].

Q: And the pI50 growth (Fusarium proliferatum)?
A: Its pI50 growth is 4.6.

Q: For `CSc1cccc(Nc2ncc(Cl)c(NC(C)C)n2)c1` [Example 173], which logP ([1]; values marked [a], pH 2.3) is on record?
A: Its logP is 2.36[a];.

Q: And the logP [1, 3]?
A: The logP was 3.89[c].

Q: And the efficacy (Gibberella zeae)?
A: Its efficacy is ≥ 80%.

Q: What about the “pI50 Fum” value (Fusarium proliferatum) of the same molecule?
A: Its value is 4.8.

Q: And the pI50 growth (Fusarium proliferatum)?
A: Its pI50 growth is <4.3.

Q: With `COCC(C)Nc1nc(Nc2cccc(OC)c2)ncc1Br` (stereo not shown) [Example 109] as the molecule, how does the logP [1, 4] read?
A: Its logP is 1.9[b].

Q: What about the “pI50 Fum” value (Fusarium proliferatum) of the same molecule?
A: Its value is 4.7.

Q: What about the pI50 growth (Fusarium proliferatum) of the same molecule?
A: Its pI50 growth is <4.3.

Q: Which logP [1, 2] does the source give for `CC(C)Nc1nc(Nc2cccc(O)c2)ncc1Cl` [Example 214] here?
A: Its logP is 1.39[b].

Q: What about the “pI50 Fum” value (Fusarium proliferatum) of the same molecule?
A: The value was 6.

Q: What about the pI50 growth (Fusarium proliferatum) of the same molecule?
A: Its pI50 growth is <4.3.

Q: With `CC(C)Nc1nc(Nc2ccc(CC(=O)C(C)(C)C)cc2)ncc1Cl` [Example 199] as the molecule, how does the logP [1, 2] read?
A: Its logP is 2.3[b].

Q: What about the pI50 growth (Fusarium proliferatum) of the same molecule?
A: The pI50 growth was 4.9.

Q: For `C=CCNC(=O)c1ccc(Nc2ncc(Cl)c(NC(C)COC)n2)cc1` (racemic) [Example 136], which logP [1, 2] is on record?
A: Its logP is 1.64[b].

Q: And the “pI50 Fum” value (Fusarium proliferatum)?
A: The value was 4.4.

Q: And the pI50 growth (Fusarium proliferatum)?
A: Its pI50 growth is <4.3.

Q: For `COCC(C)Nc1nc(Nc2ccc(C(C)=O)cc2)ncc1Cl` (stereo not shown) [Example 152], which logP [1, 2] is on record?
A: The logP was 2.02[b].

Q: And the “pI50 Fum” value (Fusarium proliferatum)?
A: Its value is 5.

Q: What about the pI50 growth (Fusarium proliferatum) of the same molecule?
A: The pI50 growth was <4.3.

Q: Which results are given for `CN(C)S(=O)(=O)c1cccc(Nc2ncc(Cl)c(NC(C)(C)C)n2)c1` [Example 51]?
A: logP ([1]; method marker [a], footnote not given): 2.73[a]; pI50 growth (Fusarium proliferatum): <4.3

Q: With `CCc1cccc(Nc2ncc(Cl)c(NC(C)C)n2)c1` [Example 230] as the molecule, how does the logP [1, 2] read?
A: Its logP is 2.33[b].

Q: What about the logP [1, 3] of the same molecule?
A: Its logP is 4.25[c];.

Q: And the “growth inhibition of Fusarium graminearum” value (Fusarium graminearum)?
A: Its value is 86%.

Q: And the “inhibitory activity of DON/AcDON” value (Fusarium graminearum)?
A: The value was > 80%.

Q: For `CC(C)Nc1nc(Nc2ccc(C(=O)N(C)C)cc2)ncc1Cl` [Example 234], which logP [1, 2] is on record?
A: The logP was 1.44[b].

Q: And the logP [1, 3]?
A: The logP was 2.27[c];.

Q: What about the “pI50 Fum” value (Fusarium proliferatum) of the same molecule?
A: The value was 5.3.

Q: What about the pI50 growth (Fusarium proliferatum) of the same molecule?
A: Its pI50 growth is 4.6.

Q: For `COCC(C)Nc1nc(Nc2ccc(OC)c(OC)c2)ncc1Br` (stereo not shown) [Example 74], which logP [1, 4] is on record?
A: Its logP is 1.55[b].

Q: What about the “pI50 Fum” value (Fusarium proliferatum) of the same molecule?
A: Its value is 4.6.

Q: What about the pI50 growth (Fusarium proliferatum) of the same molecule?
A: Its pI50 growth is <4.3.
